Laboratory results reported in the SangsterLogP compilation.

In order of falling logP:
1. COc1cc2c(cc1OC)CN(CCc1ccc(NC(=O)c3cccc4c(=O)c5cccc(OC)c5[nH]c34)cc1)CC2  4.82
2. Cn1c2c(c3ccccc31)C[C@@]1(O)[C@@H]3Cc4ccc(O)c5c4[C@@]1(CCN3CC1CC1)[C@H]2O5  4.28
3. CCC(C)NC(=O)c1cc2ccccc2c(-c2ccccc2Cl)n1 (stereo not given)  3.25
4. CCCn1c(=O)c2[nH]c(C3CCCC3)nc2n(CCCF)c1=O  2.83
5. CCN1CCC[C@H]1CNC(=O)c1cc(I)cc(OC)c1OC  2.73
6. CNCC(O)CCN1c2ccccc2N(c2ccccc2)S1(=O)=O (stereo not given)  2.55
7. CCN1CCCC1CNC(=O)c1cc(Br)cc(OC)c1OC (stereo in doubt)  2.37
8. COC(=O)C1C(c2ccc(I)cc2)CC2CCC1N2C (stereo not given)  2.13
9. Oc1ccccc1OC(c1ccccc1)C1CNCCO1 (stereo not given)  1.92
10. CN1Cc2c(C(=O)OCCF)ncn2-c2ccc(F)cc2C1=O  0.93
